Data taken from PMC12711018, “Structural flexibility of the nicotinamide group of NADH in butanol dehydrogenase YqdH from Fusobacterium nucleatum” (PLOS One, 2025).

Molecular target: T1, FnYqdH (butanol dehydrogenase YqdH) (Fusobacterium nucleatum, UniProt Q8R612)
T1 construct: gene FN1415; recombinant from pPRO-EX-HTA in E. coli BL21 (DE3); His6 tag removed with TEV protease
T1 sequence (Q8R612 1-385): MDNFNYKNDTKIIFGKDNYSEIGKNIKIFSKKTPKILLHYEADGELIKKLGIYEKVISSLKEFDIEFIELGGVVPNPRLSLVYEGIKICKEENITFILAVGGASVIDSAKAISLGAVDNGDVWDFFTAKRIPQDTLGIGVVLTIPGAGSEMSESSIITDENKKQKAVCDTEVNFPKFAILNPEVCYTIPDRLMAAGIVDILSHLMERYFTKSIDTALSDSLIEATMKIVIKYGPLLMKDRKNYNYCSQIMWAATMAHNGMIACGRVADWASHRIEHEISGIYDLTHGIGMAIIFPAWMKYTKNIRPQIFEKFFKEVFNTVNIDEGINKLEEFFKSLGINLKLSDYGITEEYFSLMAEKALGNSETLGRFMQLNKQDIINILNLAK
Assay: X-ray crystallography, crystal soaked with NADH ([…] A)
Format: binding
Details: soak 1 min in 10 mM NADH, 2 mM Co2+, 25% glycerol; crystals grown in 0.1 M HEPES pH 7.5, 1.8 M ammonium phosphate; only the ADP part is seen and modelled as ADP, nicotinamide part disordered

NC(=O)C1=CN([C@@H]2O[C@H](COP(=O)(O)OP(=O)(O)OC[C@H]3O[C@@H](n4cnc5c(N)ncnc54)[C@H](O)[C@@H]3O)[C@@H](O)[C@H]2O)C=CC1 [NADH]
X-ray crystallography, crystal soaked with NADH (2.70 A): presence of the adenine and diphosphate groups of the NADH molecule
